For this assay, the target named is T1, wild-type AR (Homo sapiens, UniProt P10275).
T1 sequence (P10275 1-920): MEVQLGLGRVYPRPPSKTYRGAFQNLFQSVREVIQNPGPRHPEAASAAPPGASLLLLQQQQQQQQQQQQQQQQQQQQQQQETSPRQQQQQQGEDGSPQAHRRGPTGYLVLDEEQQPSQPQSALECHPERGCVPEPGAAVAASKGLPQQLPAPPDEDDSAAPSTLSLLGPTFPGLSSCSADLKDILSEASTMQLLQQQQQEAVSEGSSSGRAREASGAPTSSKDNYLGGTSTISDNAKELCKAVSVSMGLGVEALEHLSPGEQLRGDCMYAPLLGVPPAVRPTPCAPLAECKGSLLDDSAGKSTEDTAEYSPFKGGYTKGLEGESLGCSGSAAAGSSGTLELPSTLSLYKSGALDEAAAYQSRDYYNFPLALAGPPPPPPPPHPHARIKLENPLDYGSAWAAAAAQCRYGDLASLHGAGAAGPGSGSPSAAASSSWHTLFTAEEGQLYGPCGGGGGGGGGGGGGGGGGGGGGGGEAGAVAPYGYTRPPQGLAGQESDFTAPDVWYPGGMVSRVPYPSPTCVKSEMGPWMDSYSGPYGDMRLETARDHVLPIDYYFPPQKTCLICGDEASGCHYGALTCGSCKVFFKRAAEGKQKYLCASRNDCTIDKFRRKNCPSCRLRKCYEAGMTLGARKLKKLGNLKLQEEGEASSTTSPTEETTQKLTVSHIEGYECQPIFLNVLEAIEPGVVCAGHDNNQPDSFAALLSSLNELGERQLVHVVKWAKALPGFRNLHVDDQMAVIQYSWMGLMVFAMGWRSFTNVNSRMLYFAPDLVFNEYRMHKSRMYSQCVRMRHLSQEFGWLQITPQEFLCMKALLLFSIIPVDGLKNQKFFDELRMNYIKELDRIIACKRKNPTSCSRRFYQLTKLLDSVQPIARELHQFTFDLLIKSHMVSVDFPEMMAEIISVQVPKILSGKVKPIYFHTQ
Briefly: Competitive inhibition of [3H]R1881 binding, wild-type AR.

Structures are written as SMILES.

In the case of `C[C@]12CC[C@H](O)CC1=CC[C@@H]1[C@@H]2CC[C@]2(C)C(c3cccnc3)=CC[C@@H]12` [Abiraterone], the “binding to the AR” value (competitive binding, up to 10 μM) is reported as “did not bind”. The inhibition at 10 µM (read-out: wild-type (LAPC4/PC3-AR), inhibition of [3H]R1881 binding as symbol) was less than 20%.

(Values after publication PMC2643345 (Molecular cancer therapeutics, 2008).)
